Here are results for eight molecules from patent US20250179062A1, “CRYSTALLINE FORMS OF A PYRROLOPYRIDINE-ANILINE COMPOUND” (NFLECTION THERAPEUTICS, INC., priority 2021, published 2025).

Entries after “also recorded” stand apart in the source; their conditions may differ. Like-named read-outs stand apart in the source and are kept apart here.

The term solubility denotes how much of the substance goes into solution per volume.

A short description of series [1]: Approximate solubility, visually estimated by solvent aliquot addition. Conditions: ambient temperature; for solubility: thermodynamic from solid. The format is physicochemical. How it is done: A lot of the compound of formula (I) containing a mixture of Forms A and B was used for this study. Measured aliquots of a variety of solvents were added to weighed amounts of the material with sonication until the solution appeared clear or the maximum volume of the vial was reached. Solubility was calculated based on the total solvent used to give a solution. […] Values are rounded to the nearest whole number. […] If dissolution occurred as determined by the visual assessment after the addition of the first aliquot, the value is reported as “>”.

Series [2] in a line: Physical stability of crystalline forms (XRPD after stress). The format is physicochemical. How it is done: Physical stability of Form A was investigated.
Physical stability of Form F was investigated.
Physical stability of Form B was investigated.
Physical stability of Form C was investigated.
Because the solids of Form H were originally isolated damp with excess MeOH (see Example 7), an attempt to remove the excess solvent under vacuum (i.e., room temperature for 2 days) was performed.

Series [3] is described as follows: Binary competitive interconversion slurry experiments. The format is physicochemical. Conditions: between room temperature and 50° C. As to the method: Alternatively, interconversion experiments were performed to determine the thermodynamic relationship between polymorphs. […] Clarendon Press, Oxford, 2006; and Polymorphism in Pharmaceutical Solids. Brittain, Harry G. ed. Marcek Dekker, Inc. New York. 1999]. […] The choice of solvent affects the kinetics of polymorph conversion and not the thermodynamic relationship between polymorphic forms [Gu, C H., Young, V. Jr., Grant, D J. J. Pharm. Sci. 2001, 90 (11): 1878-1890].
Slurries were prepared at ambient and 50° C. using binary mixtures of Forms A/F, A/E, and E/F. Saturated solutions of the compound of formula (I) were generated in EtOAc or ACN at RT or 50° C. The solutions were filtered and approximately equivalent quantities of two of the polymorphs were added to the solutions. The samples were slurried for several days at the given temperature and the solids were collected by positive pressure filtration, or centrifugation/decantation. The solids were harvested and analyzed by an XRPD.

Series [4] can be described thus: Dynamic vapor sorption (DVS). The format is physicochemical. As to the method: Automated vapor sorption (VS) data were collected on a Surface Measurement System DVS Intrinsic instrument. Samples were not dried prior to analysis. Sorption and desorption data were collected over a range from 5% to 95% RH at 10% RH increments under a nitrogen purge. The equilibrium criterion used for analysis was less than 0.0100% weight change in 5 minutes with a maximum equilibration time of 3 hours. Data were not corrected for the initial moisture content of the samples. Post-analysis sample was submitted for XRPD analysis.

The nature of series [5]: Physical stability of crystalline forms (XRPD after stress). The format is physicochemical. Conditions: higher temperature (e.g., 178° C.).
The conditions of series [6]: clinical trials, systemic MEK inhibitor; cited from earlier work.
[7] abbreviates: 90% RH at ambient temperature over 7 days.

On to `Cn1c(Nc2ccc(I)cc2F)c(C(=O)NOCCO)c2cccnc21` [Compound of Formula (I)], for which the solubility in series [1] (aqueous with cosolvent or surfactant or cyclodextrin, 1:1 THF/H2O (v/v) (aw = 1.04), lot containing mixture of Forms A and B, read-out: Solubility) was 11000 µg/mL; in series [1] (aqueous with cosolvent or surfactant or cyclodextrin, 3:1 acetone/H2O (v/v) (aw = 0.85), lot containing mixture of Forms A and B, read-out: Solubility), 5000 µg/mL; in series [1] (organic solvent or mixture, ACN, lot containing mixture of Forms A and B, read-out: Solubility), 2000 µg/mL; in series [1] (organic solvent or mixture, DCM, lot containing mixture of Forms A and B, read-out: Solubility), 6000 µg/mL; in series [1] (organic solvent or mixture, EtOAc, lot containing mixture of Forms A and B, read-out: Solubility) it was 3000 µg/mL; in series [1] (organic solvent or mixture, EtOH, lot containing mixture of Forms A and B, read-out: Solubility) it was 3000 µg/mL. The solubility is 11000 µg/mL in series [1] (organic solvent or mixture, MeOH, lot containing mixture of Forms A and B, read-out: Solubility); 29000 µg/mL in series [1] (organic solvent or mixture, THF, lot containing mixture of Forms A and B, read-out: Solubility); 8000 µg/mL in series [1] (organic solvent or mixture, acetone, lot containing mixture of Forms A and B, read-out: Solubility); below 1000 µg/mL in series [1] (organic solvent or mixture, heptane, lot containing mixture of Forms A and B, read-out: Solubility); 1000 to 20000 µg/mL in series [1] (organic solvent or mixture, in acetone, ACN, DCM, EtOAc, EtOH, MeOH, 3:1 v/v acetone/H2O, and 1:1 v/v THF/H2O, read-out: Solubility term); below 1000 µg/mL in series [1] (organic solvent or mixture, toluene, lot containing mixture of Forms A and B, read-out: Solubility). In addition, the solubility in series [1] (water, H2O, lot containing mixture of Forms A and B, read-out: Solubility) is below 1000 µg/mL. In addition, in series [1] (in heptane, H2O, and toluene), the Solubility term result was “low solubility”.

Turning to `Cn1c(Nc2ccc(I)cc2F)c(C(=O)NOCCO)c2cccnc21` [Form A], the Physical stability entry in series [2] (setting [7]) and in series [2] (one (1) day at ambient temperature under vacuum) was “stable” in each case. Further, the “Relative thermodynamic stability of anhydrous forms” value (“Relative thermodynamic stability” below) in series [3] is recorded as “most thermodynamically stable form; also recorded: more stable relative to Form E or F”. The Hygroscopicity term entry in series [4] (5-95% RH) is recorded as “limited hygroscopicity”. Moreover, the “post-DVS XRPD form” value in series [4] (solid after DVS cycle) was “Form A”.

With `Cn1c(Nc2ccc(I)cc2F)c(C(=O)NOCCO)c2cccnc21` [Form B], the values for the Physical stability entry in series [2] (exposure to 45° C. (elevated temperature) under vacuum) and in series [2] (under vacuum at ambient temperature over 2 days) were “disordered; also recorded: slightly disordered XRPD pattern with additional unidentified peaks” and “stable”, respectively. For the same molecule, the “Form conversion by in situ variable temperature XRPD (vtXRPD)” value in series [5] is recorded as “converts/crystallizes to anhydrous Form E”.

For the molecule `Cn1c(Nc2ccc(I)cc2F)c(C(=O)NOCCO)c2cccnc21` [Form C], the Physical stability result in series [2] (about 42° C. for one day or about 45° C. for three days, under vacuum) is “slightly disordered”.

`Cn1c(Nc2ccc(I)cc2F)c(C(=O)NOCCO)c2cccnc21` [Form E]: in series [3], the “Relative thermodynamic stability” value is “more thermodynamically stable than Form F but less stable than Form A; also recorded: more stable relative to Form F”.

As to `Cn1c(Nc2ccc(I)cc2F)c(C(=O)NOCCO)c2cccnc21` [Form F], the Physical stability result in series [2] (setting [7]) and in series [2] (under vacuum at room temperature for 5 days) was “stable” in each case. For the same molecule, the “Relative thermodynamic stability” value in series [3] is “least thermodynamically stable form”.

With `Cn1c(Nc2ccc(I)cc2F)c(C(=O)NOCCO)c2cccnc21` [Form H], the Physical stability entry in series [2] (under vacuum, room temperature for 2 days, damp solids with excess MeOH) was “disordered mixture of Form H and Form A”.

As for `O=C(NOC[C@H](O)CO)c1ccc(F)c(F)c1Nc1ccc(I)cc1F` [PD0325901], in series [6], the Side effects result was “one or more neurological side effects associated with ataxia, confusion, and syncope; also recorded: neurological side effects associated with ataxia, confusion, and syncope”.
